Results as given in US10689362B2, “Quinoxaline compounds as type III receptor tyrosine kinase inhibitors” (Development Center for Biotechnology, priority 2016, dated 2020).

Assays:
[1] = test system: CSF-1-dependent M-NFS-60 mouse myeloid leukemia cell; assay: M-NFS-60 cell proliferation assay (CellTiter-96); type: cell-based; conditions: Cytotoxicity, M-NFS-60 cells, 72 hours
Outline: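 Growth inhibition was measured as absorbance at 490 nm after 4 h with CellTiter 96 AQueous One reagent. Beforehand, M-NFS-60 cells (2000/well, CSF-1-dependent) were treated with a compound dilution series for 72 h following overnight plating at 37 °C, 5% CO2.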

PDGFRβ kinase = PDGFRβ kinase (Homo sapiens (Human), UniProt P09619); assay: PDGFRβ kinase assay (radiometric); type: biochemical
Sequence of PDGFRβ kinase (P09619 33-1106): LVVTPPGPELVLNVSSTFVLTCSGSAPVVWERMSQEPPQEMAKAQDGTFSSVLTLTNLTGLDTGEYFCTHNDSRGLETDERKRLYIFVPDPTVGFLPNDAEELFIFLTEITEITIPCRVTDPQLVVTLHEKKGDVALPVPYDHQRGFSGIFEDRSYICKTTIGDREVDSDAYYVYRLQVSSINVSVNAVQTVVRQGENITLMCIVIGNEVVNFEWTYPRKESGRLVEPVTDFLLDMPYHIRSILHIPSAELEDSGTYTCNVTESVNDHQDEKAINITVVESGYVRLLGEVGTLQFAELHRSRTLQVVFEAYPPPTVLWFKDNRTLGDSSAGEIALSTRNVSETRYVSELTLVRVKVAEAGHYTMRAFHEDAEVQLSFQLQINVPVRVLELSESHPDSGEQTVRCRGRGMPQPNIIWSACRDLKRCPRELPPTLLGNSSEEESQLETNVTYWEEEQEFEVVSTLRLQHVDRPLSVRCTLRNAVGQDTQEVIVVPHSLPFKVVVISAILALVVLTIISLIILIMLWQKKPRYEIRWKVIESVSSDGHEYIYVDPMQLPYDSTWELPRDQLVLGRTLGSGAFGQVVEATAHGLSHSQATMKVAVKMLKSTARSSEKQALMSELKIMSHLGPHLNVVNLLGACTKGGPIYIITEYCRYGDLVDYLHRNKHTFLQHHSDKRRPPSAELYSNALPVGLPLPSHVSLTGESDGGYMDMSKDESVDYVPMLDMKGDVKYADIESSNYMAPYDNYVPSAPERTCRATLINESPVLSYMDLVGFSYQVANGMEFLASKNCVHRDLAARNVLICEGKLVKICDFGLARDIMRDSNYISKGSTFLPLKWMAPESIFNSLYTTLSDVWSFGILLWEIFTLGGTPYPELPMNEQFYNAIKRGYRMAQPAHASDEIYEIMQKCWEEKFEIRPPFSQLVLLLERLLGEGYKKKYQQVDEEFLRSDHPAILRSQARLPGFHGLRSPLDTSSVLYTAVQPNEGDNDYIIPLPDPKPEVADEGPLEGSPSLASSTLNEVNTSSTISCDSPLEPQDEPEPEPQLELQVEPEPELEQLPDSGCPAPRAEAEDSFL
Outline: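 Radiometric assay: recombinant PDGFRβ with poly(Glu4:Tyr1) in MOPS pH 7.0 buffer containing Mg2+/Mn2+, 10 μM ATP plus [33P]-ATP, and compound at 4% DMSO final. Incubated 60 min at 30° C, stopped with phosphoric acid, filter-captured and scintillation-counted. IC50 from curve fitting.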

[2] = test system: Kasumi-1 human acute myeloid leukemia cell with c-KIT N822K activating mutation; assay: Kasumi-1 cell proliferation assay (CellTiter-96); type: cell-based; conditions: Cytotoxicity, Kasumi-1 cells, 72 hours
Outline: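 After 72 h of treatment with a compound dilution series, growth of c-KIT N822K-driven Kasumi-1 cells (64000 per well, plated the day before) was read as 490 nm absorbance. This followed a 4 h incubation with CellTiter96 AQueous One reagent.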

[3] = test system: THP-1 human acute monocytic leukemia cell harboring NRAS G12D mutation; assay: THP-1 cell proliferation assay (counter screen, CellTiter-96); type: cell-based; conditions: Cytotoxicity, THP-1 cells (counter screen), 72 hours
Outline: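 Growth inhibition read as 490 nm absorbance after 4 h with CellTiter96 AQueous One reagent, following 72 h compound exposure at rising concentrations. THP-1 (NRAS G12D) cells plated at 5000 per well and left overnight at 37 °C, 5% CO2 before dosing.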

CSF-1R kinase = CSF-1R kinase (Homo sapiens (Human), UniProt P07333); assay: CSF-1R kinase assay (AlphaScreen); type: biochemical; conditions: class symbol
Sequence of CSF-1R kinase (P07333 20-972): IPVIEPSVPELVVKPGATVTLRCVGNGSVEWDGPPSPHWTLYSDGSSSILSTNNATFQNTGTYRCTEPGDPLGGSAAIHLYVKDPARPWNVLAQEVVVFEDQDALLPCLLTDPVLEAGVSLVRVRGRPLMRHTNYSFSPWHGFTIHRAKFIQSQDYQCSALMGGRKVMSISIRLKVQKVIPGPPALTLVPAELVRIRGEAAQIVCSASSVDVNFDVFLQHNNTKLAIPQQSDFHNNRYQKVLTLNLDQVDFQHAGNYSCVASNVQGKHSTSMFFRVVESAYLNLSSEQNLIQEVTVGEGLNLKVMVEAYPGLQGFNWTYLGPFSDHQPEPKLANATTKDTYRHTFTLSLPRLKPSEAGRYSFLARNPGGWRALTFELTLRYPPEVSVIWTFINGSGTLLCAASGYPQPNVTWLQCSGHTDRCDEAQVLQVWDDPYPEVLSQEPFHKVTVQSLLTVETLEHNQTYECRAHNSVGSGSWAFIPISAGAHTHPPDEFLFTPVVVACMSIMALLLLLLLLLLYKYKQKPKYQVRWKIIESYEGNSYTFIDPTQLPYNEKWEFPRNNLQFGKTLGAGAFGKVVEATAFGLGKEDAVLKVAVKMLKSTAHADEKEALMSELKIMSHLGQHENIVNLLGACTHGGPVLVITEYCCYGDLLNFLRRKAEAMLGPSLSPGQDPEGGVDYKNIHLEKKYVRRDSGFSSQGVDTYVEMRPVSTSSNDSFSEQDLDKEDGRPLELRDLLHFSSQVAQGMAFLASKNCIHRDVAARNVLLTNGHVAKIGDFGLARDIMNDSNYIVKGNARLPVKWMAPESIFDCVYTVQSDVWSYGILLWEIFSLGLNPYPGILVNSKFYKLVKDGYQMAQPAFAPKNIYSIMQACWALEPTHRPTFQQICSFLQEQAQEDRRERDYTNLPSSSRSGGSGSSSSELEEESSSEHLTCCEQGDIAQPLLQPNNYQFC
Protocol: Inhibition of CSF-1R kinase activity by a test compound disclosed herein was estimated by AlphaScreen (PerkinElmer). […] Reactions were incubated at 30° C. for 45 min and stopped by adding 5 μL of 50 mM EDTA. Analysis of resulting product using an AlphaScreen kit, and counted with Enspire Alpha (PerkinElmer). […] The IC50 values of quinoxaline compounds of this invention against CSF-1R kinase were determined using the GraphPad Prism 5 software.

[4] = test system: MV4-11 human acute myeloid leukemia cell with FLT3-ITD mutation; assay: MV4-11 cell proliferation assay (CellTiter-96); type: cell-based; conditions: Cytotoxicity, MV4-11 cells, 72 hours
Outline: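 Growth inhibition read as absorbance at 490 nm after 4 hours with CellTiter96 AQueous One reagent. Before that, FLT3-ITD-dependent MV4-11 cells (6500 cells/well, overnight at 37° C., 5% CO2) received a rising compound concentration series for 72 hours.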

FLT3 kinase = FLT3 kinase (Homo sapiens (Human), UniProt P36888); assay: FLT3 kinase assay (radiometric); type: biochemical
Sequence of FLT3 kinase (P36888 27-993): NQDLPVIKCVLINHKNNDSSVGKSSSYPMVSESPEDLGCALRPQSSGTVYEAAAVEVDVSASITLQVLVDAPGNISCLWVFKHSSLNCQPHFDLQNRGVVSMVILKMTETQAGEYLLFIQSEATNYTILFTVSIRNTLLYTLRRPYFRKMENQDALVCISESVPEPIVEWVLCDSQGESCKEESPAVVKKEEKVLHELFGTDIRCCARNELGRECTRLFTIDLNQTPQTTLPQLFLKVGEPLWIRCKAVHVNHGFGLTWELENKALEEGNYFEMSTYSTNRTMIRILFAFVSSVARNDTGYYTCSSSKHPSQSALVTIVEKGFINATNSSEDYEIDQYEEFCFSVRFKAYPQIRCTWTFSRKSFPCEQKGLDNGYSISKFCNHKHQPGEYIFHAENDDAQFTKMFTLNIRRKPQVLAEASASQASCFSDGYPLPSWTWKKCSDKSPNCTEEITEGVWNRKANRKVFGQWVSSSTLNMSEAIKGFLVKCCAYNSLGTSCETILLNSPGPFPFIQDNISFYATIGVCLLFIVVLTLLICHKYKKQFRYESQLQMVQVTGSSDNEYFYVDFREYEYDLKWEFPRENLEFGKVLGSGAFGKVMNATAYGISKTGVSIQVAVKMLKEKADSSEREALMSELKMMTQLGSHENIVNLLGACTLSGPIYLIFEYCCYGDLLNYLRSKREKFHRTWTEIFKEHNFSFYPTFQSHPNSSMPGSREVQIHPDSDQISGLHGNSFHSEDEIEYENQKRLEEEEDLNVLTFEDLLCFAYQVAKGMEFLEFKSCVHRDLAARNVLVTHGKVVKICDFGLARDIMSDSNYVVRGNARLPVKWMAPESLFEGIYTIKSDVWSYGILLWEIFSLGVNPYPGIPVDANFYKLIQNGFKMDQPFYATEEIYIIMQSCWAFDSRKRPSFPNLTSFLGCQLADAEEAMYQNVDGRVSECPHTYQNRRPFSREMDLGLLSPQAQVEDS
Outline: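 Recombinant FLT3 (5 ng) phosphorylating poly(Glu4:Tyr1) (2 μg) with 10 μM ATP plus [^33P]-ATP in MOPS pH 7.0 buffer, 4% DMSO final, 60 min at 30° C. Reaction stopped with phosphoric acid, filter-captured and scintillation-counted; IC50 derived from dose-response.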

[5] = test system: osteoclast precursors (osteoclast differentiation); assay: Osteoclast tartrate-resistant acid phosphatase assay; type: cell-based; conditions: 168 h, at 1 μM treatment, 7 days, RANKL and M-CSF, read-out: inhibition activity against osteoclast differentiation
Protocol: A serial dilution of test compound was dispensed into a 96-well black clear bottom plate. Compound was diluted by the addition of DMEM media supplemented with 10% characterized fetal bovine serum. Diluted compound was transferred to a 96-well black clear bottom plate. Three thousand osteoclast precursors (Lonza, Walkersville, Md.) were added per well in growth medium containing Receptor Activator of Nuclear Factor Kappa-beta ligand (RANKL) and M-CSF. […] At the end of the incubation period, 50 μL of supernatant from each well was transferred to a clear 96-well plate. Tartrate-resistant acid phosphatase activity in the supernatant samples was determined using an acid phosphatase assay kit (Sigma, St. Louis, Mo.). Absorbance was measured at 550 nm using a plate reader. […] The Inhibition activity against osteoclast differentiation for each compound at 1 μM treatment in duplicate was measured.

c-KIT kinase = c-KIT kinase (Homo sapiens (Human), UniProt P10721); assay: c-KIT kinase assay (radiometric); type: biochemical
Sequence of c-KIT kinase (P10721 26-976): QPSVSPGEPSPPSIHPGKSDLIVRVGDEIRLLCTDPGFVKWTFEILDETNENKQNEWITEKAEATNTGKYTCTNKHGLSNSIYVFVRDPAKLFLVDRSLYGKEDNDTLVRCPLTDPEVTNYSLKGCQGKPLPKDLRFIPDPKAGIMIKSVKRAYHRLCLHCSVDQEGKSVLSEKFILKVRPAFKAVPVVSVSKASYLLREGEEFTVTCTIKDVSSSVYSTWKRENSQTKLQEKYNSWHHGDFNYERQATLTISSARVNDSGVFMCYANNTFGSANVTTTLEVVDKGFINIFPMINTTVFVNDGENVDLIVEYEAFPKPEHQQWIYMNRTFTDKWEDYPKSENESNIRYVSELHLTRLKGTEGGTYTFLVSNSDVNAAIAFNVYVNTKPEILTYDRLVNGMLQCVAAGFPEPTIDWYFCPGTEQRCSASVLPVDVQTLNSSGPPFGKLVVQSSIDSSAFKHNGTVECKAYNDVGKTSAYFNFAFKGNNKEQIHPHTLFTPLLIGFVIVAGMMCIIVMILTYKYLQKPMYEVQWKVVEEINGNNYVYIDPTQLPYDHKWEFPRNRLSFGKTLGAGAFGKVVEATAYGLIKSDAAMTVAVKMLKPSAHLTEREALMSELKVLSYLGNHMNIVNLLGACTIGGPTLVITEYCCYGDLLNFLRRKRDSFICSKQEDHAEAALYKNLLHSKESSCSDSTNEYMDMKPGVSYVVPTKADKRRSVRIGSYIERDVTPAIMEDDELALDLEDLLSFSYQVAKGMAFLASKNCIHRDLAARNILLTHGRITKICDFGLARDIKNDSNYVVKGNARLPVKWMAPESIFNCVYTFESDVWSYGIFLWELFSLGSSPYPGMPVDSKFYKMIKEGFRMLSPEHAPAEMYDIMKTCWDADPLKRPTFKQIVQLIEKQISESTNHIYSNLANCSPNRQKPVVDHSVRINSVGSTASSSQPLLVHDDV
Outline: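 Recombinant c-Kit (20 ng) with 2 μg Poly-(Glu4:Tyr1) in MOPS pH 7.0 buffer with MgCl2/MnCl2, 10 μM ATP plus [^33P]-ATP, 4% DMSO final, 60 min at 30° C. Stopped with phosphoric acid, filter-captured and scintillation counted; IC50 from curve fit.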

IC50 (PDGFRβ kinase; bound) | IC50 (CSF-1R kinase) | IC50 (FLT3 kinase; bound) | IC50 (c-KIT kinase; class symbol) | IC50 (PDGFRβ kinase; class symbol) | IC50 (c-KIT kinase; bound) | SMILES | IC50 [1] | IC50 [2] | IC50 [3] | IC50 [4] | inhibition at 1 µM [5] | IC50 (FLT3 kinase; class symbol)
> 1 µM | < 0.1 µM | > 1 µM | < 0.1 µM | – | – | COc1ccc(COc2ccc(Nc3ccc4ncc(N(C)C)nc4c3C#N)cc2OC)cc1 [Example 7, 3-(dimethylamino)-6-((3-methoxy-4-((4-methoxybenzyl)oxy)phenyl)amino)quinoxaline-5-carbonitrile] | < 0.3 µM | < 0.3 µM | > 10 µM | > 10 µM | > 50% | –
> 1 µM | < 0.1 µM | > 1 µM | < 0.1 µM | – | – | CNc1cnc2ccc(Nc3ccc(OCc4ccc(OC)cc4)c(OC)c3)c(C#N)c2n1 [Example 12, 6-((3-methoxy-4-((4-methoxybenzyl)oxy)phenyl)amino)-3-(methylamino)quinoxaline-5-carbonitrile] | < 0.3 µM | 0.3 to 1 µM | > 10 µM | > 10 µM | > 50% | –
> 1 µM | < 0.1 µM | > 1 µM | < 0.1 µM | – | – | COc1ccc(COc2ccc(Nc3ccc4ncc(N5CCOCC5)nc4c3C#N)cc2OC)cc1 [Example 16, 6-((3-methoxy-4-((4-methoxybenzyl)oxy)phenyl)amino)-3-morpholinoquinoxaline-5-carbonitrile] | < 0.3 µM | < 0.3 µM | > 10 µM | > 10 µM | > 50% | –
> 1 µM | < 0.1 µM | > 1 µM | < 0.1 µM | – | – | COc1ccc(COc2ccc(Nc3ccc4ncc(NC(C)C)nc4c3C#N)cc2OC)cc1 [Example 17, 3-(isopropylamino)-6-((3-methoxy-4-((4-methoxybenzyl)oxy)phenyl)amino)quinoxaline-5-carbonitrile] | < 0.3 µM | 0.3 to 1 µM | > 10 µM | 1 to 10 µM | > 50% | –
> 1 µM | < 0.1 µM | > 1 µM | < 0.1 µM | – | – | COc1ccc(COc2ccc(Nc3ccc4ncc(N5CCOCC5)nc4c3)cc2OC)cc1 [Example 24, N-(3-methoxy-4-((4-methoxybenzyl)oxy)phenyl)-3-morpholinoquinoxalin-6-amine] | < 0.3 µM | < 0.3 µM | > 10 µM | 1 to 10 µM | > 50% | –
> 1 µM | < 0.1 µM | > 1 µM | < 0.1 µM | – | – | CNc1cnc2ccc(Nc3ccc(OCc4ccc(OC)cc4)c(OC)c3)cc2n1 [Example 25, N^7-(3-methoxy-4-((4-methoxybenzyl)oxy)phenyl)-N^2-methylquinoxaline-2,7-diamine] | < 0.3 µM | 0.3 to 1 µM | 1 to 10 µM | 1 to 10 µM | > 50% | –
> 1 µM | < 0.1 µM | > 1 µM | 0.1 to 0.3 µM | – | – | COc1ccc(COc2ccc(Oc3ccc4ncc(N5CCOCC5)nc4c3C#N)cc2OC)cc1 [Example 27, 6-(3-methoxy-4-((4-methoxybenzyl)oxy)phenoxy)-3-morpholinoquinoxaline-5-carbonitrile] | < 0.3 µM | < 0.3 µM | > 10 µM | > 10 µM | > 50% | –
– | < 0.1 µM | > 1 µM | < 0.1 µM | 0.3 to 1 µM | – | COc1ccc(COc2ccc(Nc3ccc4ncc(N5CCN(C)CC5)nc4c3C#N)cc2OC)cc1 [Example 31, 6-((3-methoxy-4-((4-methoxybenzyl)oxy)phenyl)amino)-3-(4-methylpiperazin-1-yl)quinoxaline-5-carbonitrile] | < 0.3 µM | < 0.3 µM | > 10 µM | 1 to 10 µM | > 50% | –
– | < 0.1 µM | > 1 µM | < 0.1 µM | 0.1 to 0.3 µM | – | COc1cc(Nc2ccc3ncc(N4CCOCC4)nc3c2C#N)ccc1OCc1ccc(OC(F)(F)F)cc1 [Example 32, 6-((3-methoxy-4-((4-(trifluoromethoxy)benzyl)oxy)phenyl)amino)-3-morpholinoquinoxaline-5-carbonitrile] | < 0.3 µM | 0.3 to 1 µM | > 10 µM | 1 to 10 µM | > 50% | –
– | < 0.1 µM | > 1 µM | < 0.1 µM | 0.1 to 0.3 µM | – | CCc1ccc(COc2ccc(Nc3ccc4ncc(N5CCOCC5)nc4c3C#N)cc2OC)cc1 [Example 33, 6-((4-((4-ethylbenzyl)oxy)-3-methoxyphenyl)amino)-3-morpholinoquinoxaline-5-carbonitrile] | < 0.3 µM | < 0.3 µM | > 10 µM | 1 to 10 µM | > 50% | –
– | < 0.1 µM | > 1 µM | < 0.1 µM | 0.3 to 1 µM | – | CCOc1ccc(COc2ccc(Nc3ccc4ncc(N5CCOCC5)nc4c3C#N)cc2OC)cc1 [Example 35, 6-((4-((4-ethoxybenzyl)oxy)-3-methoxyphenyl)amino)-3-morpholinoquinoxaline-5-carbonitrile] | < 0.3 µM | < 0.3 µM | > 10 µM | 1 to 10 µM | > 50% | –
> 1 µM | < 0.1 µM | > 1 µM | – | – | > 1 µM | COc1ccc(COc2ncc(Nc3ccc4ncc(N5CCOCC5)nc4c3C#N)cc2OC)cc1 [Example 37, 6-((5-methoxy-6-((4-methoxybenzyl)oxy)pyridin-3-yl)amino)-3-morpholinoquinoxaline-5-carbonitrile] | < 0.3 µM | > 10 µM | > 10 µM | > 10 µM | > 50% | –
> 1 µM | < 0.1 µM | > 1 µM | – | – | > 1 µM | COc1cc(Nc2ccc3ncc(N4CCOCC4)nc3c2C#N)ccc1OCc1ccc(F)cc1 [Example 40, 6-((4-((4-fluorobenzyl)oxy)-3-methoxyphenyl)amino)-3-morpholinoquinoxaline-5-carbonitrile] | < 0.3 µM | > 10 µM | > 10 µM | > 10 µM | > 50% | –
> 1 µM | < 0.1 µM | > 1 µM | < 0.1 µM | – | – | COc1cc(Nc2ccc3ncc(N4CCOCC4)nc3c2C#N)ccc1OCc1ccc2c(c1)CCO2 [Example 45, 6-((4-((2,3-dihydrobenzofuran-5-yl)methoxy)-3-methoxyphenyl)amino)-3-morpholinoquinoxaline-5-carbonitrile] | < 0.3 µM | 0.3 to 1 µM | > 10 µM | > 10 µM | > 50% | –

SMILES | IC50 (PDGFRβ kinase; bound) | IC50 (CSF-1R kinase) | IC50 (FLT3 kinase; bound) | IC50 (c-KIT kinase; class symbol) | IC50 (PDGFRβ kinase; class symbol) | IC50 (c-KIT kinase; bound) | IC50 [1] | IC50 [2] | IC50 [3] | IC50 [4] | inhibition at 1 µM [5] | IC50 (FLT3 kinase; class symbol)
COc1ccc(COc2ccc(Nc3ccc4ncc(N5CCOCC5)nc4c3C#N)cc2)cc1 [Example 38, 6-((4-((4-methoxybenzyl)oxy)phenyl)amino)-3-morpholinoquinoxaline-5-carbonitrile] | – | < 0.1 µM | – | < 0.1 µM | 0.1 to 0.3 µM | – | < 0.3 µM | 0.3 to 1 µM | > 10 µM | < 0.3 µM | > 50% | 0.1 to 0.3 µM
